Numbers after ± are expanded uncertainties.
Settings: Crystal; DTA

Normal melting temperature [°C]	Compound
241.00 ± 10	Nc1ccc2[nH]c3ccc(N)cc3c2c1 [3,6-diamino-9H-carbazole]
296.50 ± 10	O=[N+]([O-])c1ccc2[nH]c3ccc([N+](=O)[O-])cc3c2c1 [3,6-dinitro-9H-carbazole]
